# Columns and labels:
# Experiment in all cases: relative viability (nuclei count vs DMSO), 5 days (fraction); higher = more cells survive
# Bortezomib + Linsitinib = compound: CC(C)C[C@H](NC(=O)[C@H](Cc1ccccc1)NC(=O)c1cnccn1)B(O)O [Bortezomib] + C[C@]1(O)C[C@@H](c2nc(-c3ccc4ccc(-c5ccccc5)nc4c3)c3c(N)nccn32)C1 [Linsitinib] (partner 1 µM)
# In short: (§1)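 Cells from lung cancer lines were seeded into 1536-well plates and, one day later, dosed by pin tool. Treatments were either a single drug or a fixed dose of an anchor drug with five library-drug doses (not always all listed) in √10 steps. After 5 days, nuclei were stained in a one-step fixation (final 0.05% Triton X-100, 1% formaldehyde, 1 ug/ml Hoechst) and counted on 4× images, and relative viability is the treated-to-vehicle nuclei ratio, as the median of duplicate plates.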
# [1] = compound: CC1=CC(=NN1)NC2=CC(=NC(=N2)/C=C/C3=CC=CC=C3)N4CCN(CC4)C + CS(=O)(=O)N1CCN(Cc2cc3nc(-c4cccc5[nH]ncc45)nc(N4CCOCC4)c3s2)CC1 [Pictilisib] (partner 1 µM)
# In short: as §1
# Obatoclax + Navitoclax = compound: COC1=CC(c2cc3ccccc3[nH]2)=N/C1=C\c1[nH]c(C)cc1C [Obatoclax] + CC1(C)CCC(c2ccc(Cl)cc2)=C(CN2CCN(c3ccc(C(=O)NS(=O)(=O)c4ccc(N[C@H](CCN5CCOCC5)CSc5ccccc5)c(S(=O)(=O)C(F)(F)F)c4)cc3)CC2)C1 [Navitoclax] (partner 0.5 µM)
# In short: as §1
# Obatoclax + Linsitinib = compound: COC1=CC(c2cc3ccccc3[nH]2)=N/C1=C\c1[nH]c(C)cc1C [Obatoclax] + C[C@]1(O)C[C@@H](c2nc(-c3ccc4ccc(-c5ccccc5)nc4c3)c3c(N)nccn32)C1 [Linsitinib] (partner 1 µM)
# In short: as §1
Cell Line,relative viability (Bortezomib + Linsitinib; first compound 0.0002 µM),relative viability (Bortezomib + Linsitinib; first compound 0.000632 µM),relative viability (Bortezomib + Linsitinib; first compound 0.002 µM),relative viability (Bortezomib + Linsitinib; first compound 0.006325 µM),relative viability (Bortezomib + Linsitinib; first compound 0.02 µM),relative viability ([1]; first compound 0.08 µM),relative viability ([1]; first compound 0.253 µM),relative viability ([1]; first compound 0.8 µM),relative viability ([1]; first compound 2.53 µM),relative viability ([1]; first compound 8 µM),relative viability (Obatoclax + Navitoclax; first compound 0.01 µM),relative viability (Obatoclax + Navitoclax; first compound 0.03162 µM),relative viability (Obatoclax + Navitoclax; first compound 0.1 µM),relative viability (Obatoclax + Navitoclax; first compound 0.3162 µM),relative viability (Obatoclax + Navitoclax; first compound 1 µM),relative viability (Obatoclax + Linsitinib; first compound 0.01 µM),relative viability (Obatoclax + Linsitinib; first compound 0.03162 µM),relative viability (Obatoclax + Linsitinib; first compound 0.1 µM),relative viability (Obatoclax + Linsitinib; first compound 0.3162 µM),relative viability (Obatoclax + Linsitinib; first compound 1 µM)
LCLC-97TM1,0.187,0.17,0.14,0.146,0.111,0.171,0.102,0.161,0.105,0.0788,0.38,0.439,0.387,0.346,0.474,0.166,0.224,0.182,0.163,0.179
LCLC-103H,1.06,1.07,1.25,1.09,0.272,0.623,0.676,0.58,0.5,0.347,–,–,–,–,–,0.953,1.02,1.13,1,1.23
LK-2,0.409,0.551,0.353,0.17,0.142,0.464,0.694,0.54,0.279,0.186,0.885,0.822,0.957,0.864,1.02,0.524,0.383,0.826,0.521,0.662
LOU-NH91,0.995,0.86,0.383,0.285,0.294,0.461,0.544,0.513,0.454,0.314,0.761,0.739,0.556,0.549,0.364,0.949,0.865,0.792,0.833,0.761
LU99A,0.55,–,0.599,0.337,0.149,0.328,0.296,0.284,0.157,0.142,0.855,0.788,0.831,0.501,0.545,0.486,0.437,0.498,0.307,0.475
NCI-H358,0.755,0.622,0.625,0.162,0.141,0.296,0.29,0.293,0.138,0.108,–,–,–,–,–,0.735,0.504,0.394,0.344,0.278
NCI-H661,0.62,0.552,0.46,0.311,0.181,–,0.408,0.346,0.259,0.205,–,–,–,–,–,0.598,0.564,0.66,0.529,0.735
NCI-H1563,1.25,1.25,1.02,0.534,0.466,0.624,0.655,0.584,0.582,0.355,–,–,–,–,–,1.14,1.15,1.18,1.26,0.943
NCI-H1650,–,–,–,–,–,0.519,0.526,0.549,0.113,0.0653,1.03,1.08,1.18,0.986,0.239,–,–,–,–,–
NCI-H2170,–,–,–,–,–,0.283,0.301,0.257,0.166,0.136,0.618,0.554,0.606,0.609,0.577,–,–,–,–,–
